Measurements as given in US20220016048A1, “CANNABIDIOL-TYPE CANNABINOID COMPOUND” (GW Research Limited, priority 2018, published 2022).
“Also recorded” adds a separate entry of the source. Where two headings read alike, the source gives them in different places.

Experiments:
[1] = test system: pregnant Wistar (Han) rats; test: Embryo-foetal development study in rats; format: in vivo, rat
Description: (§1) The objective of the study was to determine the effects of CBD-C4 on the embryonic and foetal development of the rat. The toxicokinetic profile of CBD-C4 was also assessed.
(§2) Three groups of 20 time-mated female Wistar (Han) rats were given CBD-C4 once daily by the oral (gavage) route from Day 6 to Day 17 of gestation at dose levels of 1, 10 or 100 mg/kg/day (at a constant dose volume of 5 mL/kg), to cover the period of organogenesis.
(§3) A similar group of rats was given the vehicle, sesame oil, following the same regimen to act as controls.
(§4) Blood samples were taken for toxicokinetic evaluation at pre-dose, 1, 2, 4, 6 and 24 hours after dosing on Days 6 and 17 of gestation. Clinical observations, body weight and food consumption were recorded. On Day 21 of gestation (GD 21) the females were euthanised, and the progress and outcome of pregnancy was evaluated.
(§5) Foetuses were evaluated for external, visceral and skeletal malformations and […]

[2] = Embryo-foetal development study in rats; format: in vivo, rat; details: female, Wistar (Han), rat, in vivo
Description: as §1, §2, §3, §4, §5

[3] = test system: sub-chronic PCP-induced deficit in social behaviour in female Lister-Hooded rats; test: social interaction test in sub-chronic PCP treated rats; format: in vivo, rat
Description: The aim of the current study was to investigate the ability of CBD-C4 (3, 10 & 30 mg/kg IP; 60 min pre-treatment (ptt)) in comparison with risperidone (an atypical antipsychotic; 0.1 mg/kg IP; 60 min pre-treatment), to antagonise a sub-chronic PCP (scPCP; 2 mg/kg IP; twice daily for 7-days; 7 day wash out)-induced deficit in social behaviour in female Lister-Hooded rats.
180 female Lister Hooded rats were used for this experiment, of which 90 were used for the drug study and 90 weight-matched untreated conspecifics were used as the companion rat, and their behaviour was not scored.
Rats were housed in groups of 5 under standard laboratory conditions under a 12-hr light: dark cycle, lights on at 0700 hr. Testing was carried out in the light phase. These studies were carried out in accordance with the Animals Scientific Procedures Act (UK, 1986).
CBD-C4 was used at doses of (3, 10, 30 mg/kg, i.p.) and risperidone was used at a dose of 0.1 mg/kg, i.p.
Rats were randomly assigned to two treatment groups and treated with vehicle, n=15 (distilled water, i.p.) or PCP, n=75 (2 mg/kg, i.p. twice daily for 7-days). This was followed by a 7-day wash out period before the rats were tested following acute treatment with CBD-C4, risperidone or vehicle.
Risperidone (0.1 mg/kg) was dissolved in a minimum volume of acetic acid, made up to volume with distilled water and pH adjusted to 6 with 0.1M NaOH and administered via the i.p. route in a volume of 1 ml/kg, 60 min prior to testing.
CBD-C4 (3, 10 & 30 mg/kg) was dissolved in 2:1:17 (Ethanol:Cremophor EL:Saline 0.9%). CBD-C4 was administered via the i.p. route in a volume of 5 ml/kg, 60 min prior to testing.
The social interaction test was performed in an open-field comprising a square box made of Plexiglas (52×52×31 cm) placed 27 cm above the floor on a moveable trolley. The floor of the box was white with black gridlines forming 9 identical squares on it. All other walls were black. A video camera connected to a video recorder and monitor was positioned above the box. The object used for the test consists of a heavy structure made of metal that cannot be displaced by the animals.
After a 7 day drug-free period, the rats were habituated to the test environment and arena prior to the test day. Habituation consisted of placing all rats from one cage together in the empty test arena for one hour for three days including the day before the test day.
Pairs of rats, weight matched (15-20 g) and unfamiliar to each other, receiving either no treatment (n=90 “conspecific” rats) or different treatments (PCP; n=15 “tested” rats, Vehicle; n=15 “tested” rats, or PCP+drug; n=60 “tested” rats) were placed in the test arena together for 10 minutes and behavior assessed as described below.
An inanimate object such as an unopened drink can was also placed in the centre of the arena to measure any differences in interaction of the test animal with an unfamiliar animal as opposed to an unfamiliar object. After each 10-minute trial, the object and arena were cleaned with 10% alcohol in an attempt to remove traces of any olfactory cues. All testing was carried out under standard room illumination levels (70 cd/m^2).
Behaviour in both trials was recorded on video for subsequent blind scoring. A behavioural scoring software program (Hindsight, Scientific programming services) was used to score the following parameters:
Investigative sniffing behaviour: sniffing the conspecific's snout or parts of the body including the anogenital region.
Following: rat moves after the conspecific i.e. a vehicle treated rat of the same species, around the arena.
Avoidances: actively turning away when approached by the conspecific animal.
Investigation of object: exploration of object placed in centre of the arena.
Locomotor activity is recorded by counting the total number of sectors (i.e. lines) crossed by the test rat.
All data were assessed for normality using D'Agostino and Pearson normality test. […]

Rat micronucleus assay = format: in vivo; details: Sprague Dawley, rat, in vivo; male rats, oral gavage; read-out: estimate of the maximum tolerated dose
Description: (§6) CBD-C4 was tested for its potential to induce micronuclei (MN) in the polychromatic erythrocytes (PCE) of the bone marrow of treated rats to induce DNA damage in the liver of the same animals.
(§7) CBD-C4 was administered at a dose of 125, 250 and 500 mg/kg/day during this study. Vehicle and a positive control of ethyl methanesulfonate (EMS) at a dose of 150 mg/kg/day were tested alongside the CBD-C4.
(§8) A range finding study was performed on 9 male young adult out-bred Sprague Dawley rats justifying the chosen dose levels of CBD-C4 used during the study.
(§9) Animals were allocated into groups of six with the exception of the positive control which comprised three animals.
(§10) Rats were dosed by oral gavage with test article suspended in sesame oil, vehicle (sesame oil) or positive control.
(§11) Blood samples were taken for bioanalysis and tissue samples were removed from animals at necropsy from the liver and femur.
(§12) Bone marrow sampling, micronucleus slide preparation and comet cell suspensions were undertaken to determine level of toxicity of CBD-C4.

[4] = test system: polychromatic erythrocytes (PCE) of the bone marrow; test: Rat micronucleus assay; format: in vivo
Description: as §6, §7, §8, §9, §10, §11, §12

[5] = 1, 10 or 100 mg/kg/day oral, GD 6-17
[6] = CBD-C4 3, 10, 30 mg/kg, risperidone 0.1 mg/kg i.p., data not shown

C=C(C)[C@@H]1CCC(C)=C[C@H]1c1c(O)cc(CCCC)cc1O [CBD-C4, (1′R,2′R)-4-butyl-5′-methyl-2′-(prop-1-en-2-yl)-1′,2′,3′,4′-tetrahydro-[1,1′-biphenyl]-2,6-diol]
mean body weight of females ([1]; 1 mg/kg/day): unaffected | foetal malformations ([1]; 10 mg/kg/day, different organ systems, no developmental pattern): two foetuses with malformations | mean food consumption ([1]; 100 mg/kg/day, two days after the start of dosing, compared with controls): Lower mean food consumption | CBD-C4-related foetal malformations ([1]; 1, 10 or 100 mg/kg/day): no CBD-C4-related foetal malformations | mean foetal weight and percentage of male foetuses ([1]; 1, 10 or 100 mg/kg/day): no effect | pregnancy parameters (number of implantations, pre- or post-implantation losses, number of live foetuses) ([1]; 1, 10 or 100 mg/kg/day): no effect | mortality [1, 5]: no mortality | treatment-related clinical observations [1, 5]: no treatment-related clinical observations | mean food consumption ([1]; 1 or 10 mg/kg/day): unaffected | mean body weight of females ([1]; 10 or 100 mg/kg/day, one day after the start of dosing on Day 6 of gestation): Dose-related mean body weight loss | foetal variations ([1]; any of the groups maternally dosed): no noteworthy foetal variations | tolerability ([1]; dose levels up to 100 mg/kg/day, pregnant rats): well tolerated | foetal malformations ([1]; maternally dosed at 1 or 100 mg/kg/day): no malformations | NOAEL ([2]; oral, embryo-foetal development study, sesame oil formulation (summary), read-out: NOAEL): 100 mg/kg | NOAEL ([2]; oral gavage GD 6-17, read-out: NOAEL for maternal and embryo-foetal toxicity): 100 mg/kg/day | behavioural deficits induced by scPCP ([3]; 30 mg/kg i.p.): improved all the behavioural deficits | avoidance behaviour compared to the scPCP-treated group ([3]; 30 mg/kg i.p., 60 min pre-treatment): significantly decreased | following behaviour compared to scPCP ([3]; 30 mg/kg i.p., 60 min pre-treatment, P<0.001): significantly increased | sniffing behaviour compared to scPCP ([3]; 30 mg/kg i.p., 60 min pre-treatment, P<0.01): significant increase | line crossings (locomotor activity) [3, 6]: no significant effect | object exploration [3, 6]: no significant effect | any of the parameters measured in the social interaction test ([3]; lower doses 3 and 10 mg/kg i.p.): no effect | MTD (Rat micronucleus assay): ~500 mg/kg/day | bone marrow toxicity ([4]; 125, 250 and 500 mg/kg/day oral gavage): no evidence of test article related bone marrow toxicity | micronucleus PCE frequencies ([4]; all doses (125, 250 and 500 mg/kg/day) oral gavage): comparable with the vehicle control group | induction of micronuclei in polychromatic erythrocytes of the bone marrow ([4]; male rats treated up to 500 mg/kg/day): did not induce an increase in micronuclei; also recorded: No genotoxicity was observed
